Results taken from patent publication US8367666B2 (priority 2004, dated 2013).
Where two headings read alike, the source gives them in different places.

Experiments:
[1] = test system: scratching action induced by Compound 48/80; test: Anti-pruritic activity test by application (Compound 48/80 scratching); assay type: in vivo, mouse (Crj:CD-1 (ICR)); conditions: topical, read-out: Itching inhibition ratio % (Concentration %)
Method: 1) Preparation of the compound and the reagent: The compound being tested was dissolved in acetone (SIGMA). Compound 48/80 (SIGMA) was dissolved in physiological saline (m by Otsuka Pharmaceutical Co., Ltd.) so as to be 60 μg/mL.
2) Animals: Female Crj: CD-1 (ICR) mice of 6 to 10 age in week (Japan Charles Liver) were used as laboratory animals. The animals were fed in the barrier breeding room where […] in room temperature, 30 to 70% in humidity, and the light and shade condition existed every 12 hours and feed (CE-2: Japan Crea) and the drinking water were freely taken. The hair of dorsa (from the cervical region of the back to the center of the back) of the animals were cut with a hair clipper two days or more before the anti-pruritic activity is evaluated, those with no wound, rubefaction, and thickening of the skin on the dehaired part were chosen and supplied to the experiment on the day of the evaluation. 3) Evaluation procedures: The acetone solution of the compound being tested was applied by 50 μL on the dehaired parts of the mice with a pipeter. On the mice of the control group, 50 μL of acetone was applied. The 15 minutes later, 50 μL (corresponding to 3 μg) of Compound 48/80 solution was injected intradermally in the compound applied parts with the use of a injector (Terumo Corporation), the mice were individually put in five observation cages made of acrylate resin at once, and the scratching action (action of scratching the injection part by the hind leg) frequency during 30 minutes was measured. The evaluation was carried out in one group of 5 to 7 mice. 4) Data processing: The experiment results were shown by the mean values. The test of the significant difference of the compound applying group to the control group was conducted with Welch's t-test, and p<0.05 was assumed to be significant.

[2] = biological target: T1, CB2 receptor (Homo sapiens, UniProt P34972); test: Human cannabinoid receptor bonding inhibition test ([3H]CP55940), CB2; assay type: binding; parameters: expressed in transfected cells; membrane fraction
[3] = biological target: T2, CB1 receptor (Homo sapiens, UniProt P21554); test: Human cannabinoid receptor bonding inhibition test ([3H]CP55940), CB1; assay type: binding; parameters: expressed in transfected cells; membrane fraction
[4] = biological target: T2, CB1 receptor; test: cAMP formation inhibition experiment through a cannabinoid receptor (forskolin stimulation), CB1; assay type: cell-based; parameters: expressed in transfected cells; host or cells: CHO cells
Procedure, shortened: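 CHO cells expressing human CB1 were pre-incubated with compound for 15 min, then stimulated with forskolin (final 4 μM) for 20 min. The reaction was stopped with 1 M HCl and supernatant cAMP was measured by cAMP kit.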

[5] = biological target: T1, CB2 receptor; test: cAMP formation inhibition experiment through a cannabinoid receptor (forskolin stimulation), CB2; assay type: cell-based; parameters: expressed in transfected cells; host or cells: CHO cells
Method: After the reaction had been stopped by adding 1M hydrochloric acid, the amount of cAMP in the supernatant was measured with the use of Cyclic AMP kit (made by the CIS Diagnostic Corp.).

[6] = read-out: Agonist activity (nM) CB1
[7] = [3H]CP55940 0.5 nM, membrane preparation of CHO cells expressing CB1, Ki calculated from IC50, read-out: Binding activity (nM) CB1
[8] = [3H]CP55940 0.5 nM, membrane preparation of CHO cells expressing CB2, Ki calculated from IC50, read-out: Binding activity (nM) CB2
[9] = inhibition of forskolin (4 μM)-stimulated cAMP formation, CHO cells expressing human CB1, read-out: Agonist activity (nM) CB1
[10] = inhibition of forskolin (4 μM)-stimulated cAMP formation, CHO cells expressing human CB2, read-out: Agonist activity (nM) CB2

T2 sequence (P21554 whole entry): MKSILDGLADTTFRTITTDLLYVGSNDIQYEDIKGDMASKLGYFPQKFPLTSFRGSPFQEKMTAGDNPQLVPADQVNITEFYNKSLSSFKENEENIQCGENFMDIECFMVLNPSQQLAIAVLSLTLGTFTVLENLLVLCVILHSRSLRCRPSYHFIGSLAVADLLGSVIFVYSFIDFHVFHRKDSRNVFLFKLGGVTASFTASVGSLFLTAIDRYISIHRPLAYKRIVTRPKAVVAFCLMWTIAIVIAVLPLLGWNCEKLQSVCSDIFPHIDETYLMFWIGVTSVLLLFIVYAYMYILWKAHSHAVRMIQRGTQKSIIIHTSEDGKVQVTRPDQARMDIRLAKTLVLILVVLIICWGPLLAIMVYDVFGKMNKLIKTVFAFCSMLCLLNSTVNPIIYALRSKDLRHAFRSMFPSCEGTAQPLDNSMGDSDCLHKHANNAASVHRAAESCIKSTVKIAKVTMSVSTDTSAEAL
T1 sequence (P34972 whole entry): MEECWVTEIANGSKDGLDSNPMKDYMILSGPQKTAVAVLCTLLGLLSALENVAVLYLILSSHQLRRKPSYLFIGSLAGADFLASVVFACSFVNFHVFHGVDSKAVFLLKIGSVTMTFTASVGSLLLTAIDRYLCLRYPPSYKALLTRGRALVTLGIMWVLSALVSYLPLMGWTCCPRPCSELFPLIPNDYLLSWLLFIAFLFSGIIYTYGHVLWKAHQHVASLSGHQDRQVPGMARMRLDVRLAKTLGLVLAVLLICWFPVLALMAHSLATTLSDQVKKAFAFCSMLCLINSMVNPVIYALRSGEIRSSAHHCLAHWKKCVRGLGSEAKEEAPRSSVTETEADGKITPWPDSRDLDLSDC

| SMILES | inhibition in vivo at 1 % ([1]; Mus musculus) [%] | Ki [2] [nM] | Ki [3] [nM] | IC50 [4, 6] [nM] | IC50 [5] [nM] | inhibition in vivo at 3 % ([1]; Mus musculus) [%] | Ki [3, 7] [nM] | IC50 [4] [nM] | also measured |
| --- | --- | --- | --- | --- | --- | --- | --- | --- | --- |
| CN1CCN(C(=O)C(C)(C)NC(=O)c2cc3c(n(CC4CCCCC4)c2=O)CCCCCC3)CC1 |  |  |  |  |  |  |  |  | melting point: 183 to 184 °C |
| CC(C)(NC(=O)c1cc2c(n(CCCNS(C)(=O)=O)c1=O)CCCCCC2)C(=O)O |  |  |  |  |  |  |  |  | melting point: 183 to 184 °C |
| CC(C)(NC(=O)c1cc2c(n(CC3CCCCC3)c1=O)CCCCCC2)C(=O)N1CCC(C(=O)N2CCCCC2)CC1 [Compound I-601] | 67 | 3.9 | 47 | 186 | 6.3 |  |  |  |  |
| CC(C)NC(=O)N1CCN(C(=O)C(C)(C)NC(=O)c2cc3c(n(CC4CCCCC4)c2=O)CCCCCC3)CC1 [Compound I-604] |  | 2.5 | 16 | 55 | 4.8 | 95 |  |  |  |
| CC(C)(NC(=O)c1cc2c(n(CC3CCCCC3)c1=O)CCCCCC2)C(=O)N1CCC(C(=O)NNS(C)(=O)=O)CC1 [Compound I-606] | 86 | 4.4 | 60 | 118 | 8.7 |  |  |  |  |
| CCCCNC(=O)C1CCCN(C(=O)C(C)(C)NC(=O)c2cc3c(n(CC4CCCCC4)c2=O)CCCCCC3)C1 (centres unmarked) [Compound I-608] |  | 11 | 527 | > 2000 | 3.5 | 75 |  |  |  |
| CC(C)(NC(=O)c1cc2c(n(CC3CCCCC3)c1=O)CCCCCC2)C(=O)N1CCC(C(=O)N2CCOCC2)CC1 [Compound I-617] | 96 | 6.6 | 295 | 79 | 18 |  |  |  |  |
| O=C(O)Cc1nsc(NC(=O)c2cc3c(n(CC4CCCCC4)c2=O)CCCCCC3)n1 [Compound X-21] | 106 | 3.3 |  |  | 30 |  | 1770 | > 2000 |  |
| O=C(N[C@@H](C(=O)O)c1ccccc1)c1cc2c(n(CCCC(F)(F)F)c1=O)CCCCCC2 [Compound X-54] | 100 | < 2 | 93 | > 2000 | 3.7 |  |  |  |  |
| O=C(O)CCc1csc(NC(=O)c2cc3c(n(CC4CCCCC4)c2=O)CCCCCC3)n1 [Compound X-64] |  |  |  |  |  |  | 580 |  | inhibition in vivo at 1 % ([1]; applied as acetone solution 50 μL, concentration 1.0%, mouse, Compound 48/80): 99%; Ki [2, 8]: 18 nM; IC50 [4, 9]: 454 nM; IC50 [5, 10]: 15 nM |
| CCCC(CC(=O)O)NC(=O)c1cc2c(n(CC3CCCCC3)c1=O)CCCCCC2 (centres unmarked) [Compound X-66] | 71 | 92 |  |  | 50 |  | > 2000 | 549 |  |
| CCCCC(CC(=O)O)NC(=O)c1cc2c(n(CC3CCCCC3)c1=O)CCCCCC2 (centres unmarked) [Compound X-67] | 79 | 96 |  |  | 40 |  | > 2000 | > 2000 |  |
| O=C(O)Cc1cnc(NC(=O)c2cc3c(n(CCCC(F)(F)F)c2=O)CCCCCC3)s1 [Compound X-115] |  | 3.3 |  |  | 8.6 |  | 1220 | > 2000 | inhibition in vivo at 0.5 % ([1]; Mus musculus): 67% |
| CCc1c(C)cc(C(=O)NC(CC)(CC)CC(=O)O)c(=O)n1Cc1ccc(F)cc1 [Compound X-216] | 106 | 3.3 |  |  | 30 |  | 1770 | > 2000 |  |
| O=C(O)COc1ccc(NC(=O)c2cc3c(n(CC4CCCCC4)c2=O)CCCCCC3)cc1 [Compound X-220] |  | 18 |  |  |  |  |  | 1550 | inhibition in vivo at 0.5 % ([1]; Mus musculus): 97%; Ki ([3]; read-out: Binding activity (nM) CB1): 555 nM; IC50 ([5]; read-out: Agonist activity (nM) CB2): 231 nM |
| O=C(NC(C(=O)O)C(F)(F)F)c1cc2c(n(CC3CCCCC3)c1=O)CCCCCC2 (centres unmarked) [Compound X-229] |  | 12 |  |  | 27 |  | 482 | 369 | inhibition in vivo at 0.5 % ([1]; Mus musculus): 105% |
| O=C(O)CC(NC(=O)c1cc2c(n(Cc3ccc(F)cc3)c1=O)CCCCCC2)C(F)(F)F (centres unmarked) [II-067] |  | 13 |  |  | 4.9 | 68 | > 2000 | 685 |  |
| CC(C)C[C@@H](CC(=O)O)NC(=O)c1cc2c(n(CC3CCCCC3)c1=O)CCCCCC2 [II-069] |  | 3.4 | 88 | 5.6 | 2.1 | 84 |  |  |  |
| O=C(O)CC1(NC(=O)c2cc3c(n(CC4CCCCC4)c2=O)CCCCCC3)CCCCC1 [II-073] |  | 6.2 | 88 | 11 | 0.2 | 58 |  |  |  |
| C/C=C/C(CC(=O)O)NC(=O)c1cc2c(n(CC3CCCCC3)c1=O)CCCCCC2 (centres unmarked) [II-075] |  | 48 |  |  | 4.6 | 95 | 652 | 290 |  |
| O=C(O)CC(NC(=O)c1cc2c(n(CC3CCCCC3)c1=O)CCCCCC2)C(F)(F)F (centres unmarked) [II-076] |  | 41 |  |  | 1.2 | 86 | > 2000 | > 2000 |  |
| CC(C)C[C@@H](CC(=O)O)NC(=O)c1cc2c(n(Cc3ccc(F)cc3)c1=O)CCCCCC2 [II-078] |  | 27 |  |  | < 2 | 94 | 1450 | 252 |  |
| CC(C)(CCNC(=O)c1cc2c(n(CC3CCCCC3)c1=O)CCCCCC2)C(=O)O [III-017] |  | 15 |  |  | 35 | 76 | 149 | 322 |  |
| O=C(O)Cc1csc(NC(=O)c2cc3c(n(CC4CCCCC4)c2=O)CCCCCC3)n1 [IV-023] |  |  |  |  |  |  | 425 |  | inhibition in vivo at 3 % ([1]; applied as acetone solution 50 μL, concentration 3.0%, mouse, Compound 48/80): 116%; Ki [2, 8]: 22 nM; IC50 [4, 9]: 398 nM; IC50 [5, 10]: 11 nM |
| O=C(O)Cc1csc(NC(=O)c2cc3c(n(CC4CCCCC4)c2=O)CCCCCC3)c1 [IV-029] | 93 | 43 |  |  | 22 |  | 1320 | 606 |  |
| COCCn1c2c(cc(C(=O)NC3(CC(=O)O)CCCC3)c1=O)CCCCCC2 [XI-035] |  | 31 | > 2000 | > 2000 | 47 |  |  |  | inhibition in vivo at 0.5 % ([1]; Mus musculus): 69% |
